In patent US20220056018A1, “SREBP INHIBITORS COMPRISING A THIOPHENE CENTRAL RING” (Capulus Therapeutics, LLC, priority 2019, published 2022):

Key:
[1] = Stability in human liver microsomes; type: in vitro ADME; conditions: 37° C., NADPH
Outline: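 Compound from a 100 μM working solution was preincubated 10 min at 37 °C with human liver microsomes (added at 3.33 mg/mL) in 100 mM potassium phosphate. Incubation then ran 60 min at 37 °C with NADPH (2.85 mM cofactor solution), alongside a no-cofactor 60-min control and a 0-min sample. Parent compound was quantified by LC-MS/MS after acetonitrile quench for half-life.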

A673 = experiment: Cancer cell growth inhibition; type: cell-based; conditions: Homo sapiens; A673 (muscle), 72 hr treatment
Outline: (§1)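 Steps: serially dilute compound 10-fold in DMSO across six stock levels (10 mM down to 0.1 uM); treat cells in growth media at 0.1% final DMSO for 72 hr; stain protein with sulforhodamine B; compute growth parameters from one data point per concentration.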

CAKI1 = experiment: Cancer cell growth inhibition; type: cell-based; conditions: Homo sapiens, CAKI-1; CAKI1 (kidney), 72 hr treatment
Outline: as §1

COLO678 = experiment: Cancer cell growth inhibition; type: cell-based; conditions: Homo sapiens, COLO-678; COLO678 (colon), 72 hr treatment
Outline: as §1

DU145 = experiment: Cancer cell growth inhibition; type: cell-based; conditions: Homo sapiens, DU-145; DU145 (prostate), 72 hr treatment
Outline: as §1

HCT116 = experiment: Cancer cell growth inhibition; type: cell-based; conditions: Homo sapiens, HCT-116; HCT116 (colon), 72 hr treatment
Outline: as §1

IGROV1 = experiment: Cancer cell growth inhibition; type: cell-based; conditions: Homo sapiens, IGROV-1; IGROV1 (ovary), 72 hr treatment
Outline: as §1

J82 = experiment: Cancer cell growth inhibition; type: cell-based; conditions: Homo sapiens; J82 (bladder), 72 hr treatment
Outline: as §1

JAR = experiment: Cancer cell growth inhibition; type: cell-based; conditions: JAR (placenta), 72 hr treatment
Outline: as §1

KASUMI-1 = experiment: Cancer cell growth inhibition; type: cell-based; conditions: Homo sapiens; KASUMI-1 (hematological), 72 hr treatment
Outline: as §1

MDAMB435 = experiment: Cancer cell growth inhibition; type: cell-based; conditions: Homo sapiens, MDA-MB-435; MDAMB435 (skin), 72 hr treatment
Outline: as §1

MIAPACA2 = experiment: Cancer cell growth inhibition; type: cell-based; conditions: Homo sapiens, MIA PaCa-2; MIAPACA2 (pancreas), 72 hr treatment
Outline: as §1

NCIH358M = experiment: Cancer cell growth inhibition; type: cell-based; conditions: NCI-H358M; NCIH358M (lung), 72 hr treatment
Outline: as §1

NCIH82 = experiment: Cancer cell growth inhibition; type: cell-based; conditions: Homo sapiens, NCI-H82; NCIH82 (lung), 72 hr treatment
Outline: as §1

PANC1005 = experiment: Cancer cell growth inhibition; type: cell-based; conditions: Homo sapiens; PANC1005 (pancreas), 72 hr treatment
Outline: as §1

PBMC = experiment: Cancer cell growth inhibition; type: cell-based; conditions: PBMC (hematological), 72 hr treatment
Outline: as §1

SKNAS = experiment: Cancer cell growth inhibition; type: cell-based; conditions: Homo sapiens, SK-N-AS; SKNAS (brain), 72 hr treatment
Outline: as §1

SKOV3 = experiment: Cancer cell growth inhibition; type: cell-based; conditions: Homo sapiens, SK-OV-3; SKOV3 (ovary), 72 hr treatment
Outline: as §1

SU-DHL-10 = experiment: Cancer cell growth inhibition; type: cell-based; conditions: Homo sapiens, SU-DHL10; SU-DHL-10 (hematological), 72 hr treatment
Outline: as §1

SU-DHL-6 = experiment: Cancer cell growth inhibition; type: cell-based; conditions: Homo sapiens; SU-DHL-6 (hematological), 72 hr treatment
Outline: as §1

| Compound | percent of compound remaining after 60 min in human liver microsomes [1] | IC50 (A673) [µM] | IC50 (CAKI1) [µM] | IC50 (COLO678) [µM] | IC50 (DU145) [µM] | IC50 (HCT116) [µM] | IC50 (IGROV1) [µM] | IC50 (J82) [µM] | IC50 (JAR) [µM] | IC50 (KASUMI-1) [µM] | IC50 (MDAMB435) [µM] | IC50 (MIAPACA2) [µM] | IC50 (NCIH358M) [µM] | IC50 (NCIH82) [µM] | IC50 (PANC1005) [µM] | IC50 (PBMC) [µM] | IC50 (SKNAS) [µM] | IC50 (SKOV3) [µM] | IC50 (SU-DHL-10) [µM] | IC50 (SU-DHL-6) [µM] |
| --- | --- | --- | --- | --- | --- | --- | --- | --- | --- | --- | --- | --- | --- | --- | --- | --- | --- | --- | --- | --- |
| CC(C)(CO)c1cc(-c2csc(-c3ccc(NS(C)(=O)=O)cc3Cl)c2)ccn1 [Compound I-8909, N-(3-chloro-4-(4-(2-(1-hydroxy-2-methylpropan-2-yl)pyridin-4-yl)thiophen-2-yl)phenyl)methanesulfonamide] | ++ (30.1-60 = ++) | > 10 | < 10 | < 10 | > 10 | < 10 | > 10 | < 10 | < 10 | > 10 | > 10 | > 10 | < 10 | < 10 | < 10 | > 10 | > 10 | > 10 | < 10 | < 10 |
| CC(C)(O)Cc1cc(-c2csc(-c3ccc(NS(C)(=O)=O)cc3Cl)c2)ccn1 [Compound I-9004, N-(3-chloro-4-(4-(2-(2-hydroxy-2-methylpropyl)pyridin-4-yl)thiophen-2-yl)phenyl)methanesulfonamide] | +++ (>60.1 = +++) | > 10 | < 10 | < 10 | > 10 | < 10 | > 10 | > 10 | < 10 | > 10 | < 10 | > 10 | < 10 | < 10 | < 10 | > 10 | > 10 | > 10 | < 10 | < 10 |
| CS(=O)(=O)Nc1ccc(-c2cc(-c3ccnc4c3OCCO4)cs2)c(Cl)c1 [Compound I-9017, N-(3-chloro-4-(4-(2,3-dihydro-[1,4]dioxino[2,3-b]pyridin-8-yl)thiophen-2-yl)phenyl)methanesulfonamide] | +++ (>60.1 = +++) | < 10 | < 10 | < 10 | < 10 | < 10 | < 10 | > 10 | < 10 | < 10 | > 10 | < 10 | < 10 | < 10 | > 10 | > 10 | > 10 | < 10 | < 10 | < 10 |
